In brackets after ≈: the same amount, converted by molar mass. Read-outs that look alike come from different tables or passages of the source.
Legend:
L 1210 Leukämiezellen = assay: Cytotoxicity against L 1210 leukemia cells (stem cell assay, SCA; colony formation in soft agar); format: cell-based, Maus; details: Mus musculus
Procedure: Der Test wurde entsprechend der von Hamburger und Salmon beschriebenen Methodik mit den unten beschriebenen Modifikationen durchgeführt.
Konditioniertes Medium wurde durch McCoy 5A Medium ersetzt. Als Folge der hohen Klonierungsrate der L 1210 Leukämiezellen in Soft Agar wurde die Anzahl an Tumorzellen pro Platte auf 5 x 10² reduziert.
Die Zellen wurden mit unterschiedlichen Konzentrationen der Testsubstanz für 1 h bei 37° C inkubiert. Anschließend wurden die Zellen zweimal mit McCoy 5A Medium gewaschen und anschließend in einem Zwei-Schichten-Agar System als obere Schicht entsprechend der Methode von Hamburger und Salmon ausplatiert.
Zusätzliche Parallelexperimente wurden unter Verwendung einer kontinuierlichen Inkubationszeit durchgeführt, wobei unterschiedliche Konzentrationen der Testsubstanz der oberen Agarschicht vor Ausplatieren der Zellen zugemischt wurden.
Die Platten wurden in einem Brutschrank mit 5 % CO₂, 20 % 02 und 95 % relativer Luftfeuchte für 5-7 Tage inkubiert. Nach dieser Zeit wurden Kolonien mit einem Durchmesser von 60 µm mit Hilfe eines Invertoskopes gezählt.
Die Ergebnisse wurden angegeben als prozentualer Anteil der Kolonien in behandelten versus unbehandelten Gruppen. Der Variationskoeffizient bei wiederholten Experimenten war kleiner als 15 %.
Aus der Dosis-Wirkungskurve wurde die IC₅₀ für die kontinuierliche und einstündige Inkubation bestimmt (Tab. 1).

L 1210 = assay: Proliferation test (MTT reduction), L 1210; format: cell-based, Maus; details: Mus musculus, read-out: IC₅₀ MTT L1210
Procedure: (§1) L 1210, A 549 oder HT 29 in exponentieller Wachstumsphase werden in einer Zelldichte von 5 x 10³ Zellen/ml in RPMI 1640 in einer 96 Well Mikrotiterplatte für 72 h mit unterschiedlichen Konzentrationen der Testsubstanz bei 37° C, 5 % CO₂ und 95 % relativer Luftfeuchte inkubiert. Kontrollexperimente erhalten anstelle der Testsubstanz lediglich Wachstumsmedium. Für jede Testsubstanz sowie für die Kontrolle werden 4fach Bestimmungen angesetzt. Nach 65 h Inkubation werden 50 µl einer MTT-Lösung (2.5 mg/ml in Phosphat-gepuffertem Kochsalz) zugegeben. In Gegenwart lebender Zellen wird MTT zu einem dunkelroten unlöslichen Formazanfarbstoff reduziert. Diese Reaktion ist nach 7 h (L 1210 Zellen) bzw. nach 24 h (A 549, HT 29 Zellen) beendet, und das überstehende Medium wird sorgfältig abgesaugt. Der unlösliche Farbstoff wird durch Zugabe von 100 µl DMSO aufgelöst und die Extinktion der so entstehenden Lösung anschließend für jedes Well in einem Multiscan Photometer 340 CC der Fa. Flow bei einer Wellenlänge von 492 nm vermessen.
(§2) Aus dem Verhältnis der Extinktionen behandelter und unbehandelter Zellen ergibt sich eine Dosis-Wirkungskurve, aus der die Konzentration, die gerade 50 % der Zellen (IC₅₀) abtötet, abgelesen werden kann. Für wiederholte Untersuchungen beträgt der Variationskoeffizient weniger als 15 % (Tabelle 1). Tabelle 1

A 549 = assay: Proliferation test (MTT reduction), A 549; format: cell-based; details: Homo sapiens, read-out: IC₅₀ MTT A 549
Procedure: as §1, §2

HT 29 = assay: Proliferation test (MTT reduction), HT 29; format: cell-based; details: Homo sapiens, read-out: IC₅₀ MTT HT 29
Procedure: as §1, §2

L 1210 Leukämie = format: in vivo; details: for opt. Dosis: dose with the largest antitumoral effect
Procedure: Methodik: Ascitesflüssigkeit wird unter sterilen Bedingungen DBA2 Mäusen (weiblich, 18-20 g) 7 Tage nach Implantation entnommen. Der Ascites wird dreimal mit PBS gewaschen, gezählt und auf eine Zellzahl von 10⁴ in 0.2 ml PBS eingestellt.
10⁴ Zellen, suspendiert in 0.2 ml PBS, werden anschließend DBF1 Mäusen (weiblich, 18-20 g) intravenös injiziert. 6 Tiere pro Gruppe werden für jede Substanzkonzentration bzw. als Kontrolle eingesetzt.
• a) Die Tiere werden am Tag 1 und 5 nach Injektion der Testsubstanz gewogen. Gewichtsverlust von mehr als 20 % am Tag 5 wird als Indikator einer toxischen Substanzwirkung angesehen. • b) Am Ende des Experimentes (Tod aller Tiere oder überlebende Tiere am Tag 60) wird die mittlere Überlebenszeit der Tiere in den jeweiligen Gruppen bestimmt, sofern am Tag 5 des Experimentes mindestens 65 % der Tiere noch gelebt hatten. Die mittlere Überlebenszeit wird ausschließlich für im Verlaufe des Experimentes sterbende Tiere bestimmt. Langzeit-überlebende (LTS) werden bei dieser Berechnung nicht berücksichtigt und gesondert aufgeführt.
Aus der mittleren Überlebenszeit (MSTt) der behandelten Gruppen sowie der Kontrollgruppen (MSTc) wird die antitumorale Wirksamkeit (T/C) für die jeweilige Substanzkonzentration in Prozent der unbehandelten Kontrolle entsprechend der folgenden Formel bestimmt: [formula]
T/C Werte größer als 125 % werden als Indikator einer signifikanten antitumoralen Wirksamkeit der Testsubstanz angesehen. Die Dosis, die den größten antitumoralen Effekt (optimale Dosierung) zeigte, wurde ermittelt. Tiere, die am Tag 60 des Experimentes noch leben, werden als Longterm-Survivors getrennt aufgeführt. Tabelle 2

[1] = L 1210 iv, treatment iv, Q3D (Verbind. 1: 2x, Pirarubicin: 3x)
[2] = L1210, read-out: IC₅₀ SCA L 1210 1 h

SMILES	opt. Dosis (L 1210 Leukämie; [1])	IC50 (L 1210 Leukämiezellen; [2])	IC50 (L 1210; L1210, 72 h)	IC50 (A 549; A549, 72 h)	IC50 (HT 29; HT-29, 72 h)	further results
COc1cccc2c1C(=O)c1c(O)c3c(c(O)c1C2=O)C[C@@](O)(C(=O)CO)C[C@@H]3O[C@H]1C[C@H](N)[C@H](O[C@@H]2CCCCO2)[C@H](C)O1 [Pirarubicin, 4′-O-THP-Doxorubicin, reference compound]	4.7 mg/kg/inj					IC50 (L 1210 Leukämiezellen; L1210, 1 h incubation at 37° C, colonies counted after 5-7 days, read-out: IC₅₀ SCA L 1210 1 h): 0.01 µg/mL (≈ 0.0159 µM); IC50 (L 1210 Leukämiezellen; L1210, continuous incubation, colonies counted after 5-7 days, read-out: IC₅₀ SCA L 1210 cont): 0.004 µg/mL (≈ 0.00637 µM); IC50 (L 1210; L1210, 72 h incubation): 0.004 µg/mL (≈ 0.00637 µM); IC50 (A 549; A549, 72 h incubation): 0.15 µg/mL (≈ 0.239 µM); IC50 (HT 29; HT-29, 72 h incubation): 0.016 µg/mL (≈ 0.0255 µM); Effektivität T/C % (L 1210 Leukämie; iv): 178%
COc1cc(OC)cc(C(C)(C)OC(=O)N[C@H]2C[C@H](O[C@H]3C[C@](O)(C(=O)CO)Cc4c(O)c5c(c(O)c43)C(=O)c3c(OC)cccc3C5=O)O[C@@H](C)[C@H]2OC2CCCCO2)c1 (stereo partly drawn) [Verbindung 1, 7-O-(3-(3 ,5′-Dimethoxy-α,α-dimethyl-benzyloxycarbonylamino)-4-O-tetrahydropyranyl-2,3,6-tridesoxy-alpha-L-lyxohexopyranosyl)-adriamycinon]	20 mg/kg/inj	5.3 µg/mL (≈ 6.24 µM)	0.027 µg/mL (≈ 0.0318 µM)	0.023 µg/mL (≈ 0.0271 µM)	0.04 µg/mL (≈ 0.0471 µM)	zytostatische Wirksamkeit (L 1210 Leukämie; "in vivo" L 1210-Testmodell, compared with Doxorubicin or Tetrahydropyranyl-Doxorubicin): erheblich bessere; Effektivität toxisch (L 1210 Leukämie; animals per group with toxic effect, at optimal dose): 1/6; Effektivität T/C % (L 1210 Leukämie; at optimal dose, mean survival time treated vs control, L 1210 iv, treatment iv, Q3D (Verbind. 1: 2x, Pirarubicin: 3x)): 435%; Effektivität LTS (L 1210 Leukämie; long-term survivors at day 60, animals per group, at optimal dose): 5/6
COc1cc(OC)cc(C(C)(C)OC(=O)N[C@H]2C[C@H](O[C@H]3C[C@](O)(C(=O)CO)Cc4c(O)c5c(c(O)c43)C(=O)c3c(OC)cccc3C5=O)O[C@@H](C)[C@H]2O)c1 [Verbindung 2, 7-O-(3-(3 ,5′-Dimethoxy-α,α-dimethyl-benzyloxycarbonylamino)-2,3,6-tridesoxy-alpha-L-lyxohexopyranosyl)-adriamycinon]		6.4 µg/mL (≈ 8.36 µM)	0.11 µg/mL (≈ 0.144 µM)	0.11 µg/mL (≈ 0.144 µM)	0.13 µg/mL (≈ 0.17 µM)	
COc1cc(OC)cc(C(C)(C)OC(=O)N[C@H]2C[C@H](O[C@H]3C[C@](O)(C(=O)CO)Cc4c(O)c5c(c(O)c43)C(=O)c3c(OC)cccc3C5=O)O[C@@H](C)[C@@H]2O)c1 [Verbindung 3, 7-O-(3-(3 ,5′-Dimethoxy-α,α-dimethyl-benzyloxycarbonylamino)-2,3,6-tridesoxy-alpha-L-arabinohexopyranosyl)-adriamycinon]			0.02 µg/mL (≈ 0.0261 µM)	0.04 µg/mL (≈ 0.0522 µM)	0.11 µg/mL (≈ 0.144 µM)	
COc1cc(OC)cc(C(C)(C)OC(=O)N[C@H]2C[C@H](O[C@H]3C[C@](O)(C(C)=O)Cc4c(O)c5c(c(O)c43)C(=O)c3c(OC)cccc3C5=O)O[C@@H](C)[C@H]2O)c1 [Verbindung 4, 7-O-(3-(3 ,5′-Dimethoxy-α,α-dimethyl-benzyloxycarbonylamino)-2,3,6-tridesoxy-alpha-L-lyxohexopyranosyl)-daunomycinon]		4.5 µg/mL (≈ 6 µM)	0.14 µg/mL (≈ 0.187 µM)	0.13 µg/mL (≈ 0.173 µM)	0.13 µg/mL (≈ 0.173 µM)	
CC[C@@]1(O)C[C@H](O[C@H]2C[C@H](NC(=O)OC(C)(C)c3cc(OC)cc(OC)c3)[C@H](O)[C@H](C)O2)c2c(O)c3c(c(O)c2[C@H]1O)C(=O)c1cccc(O)c1C3=O [Verbindung 8, 7-O-(3-(3,5-Dimethoxy-alpha,alpha-dimethyl-benzyloxycarbonylamino)-2,3,6-tridesoxy-alpha-L-lyxohexopyranosyl)-β-rhodomycinon]		0.47 µg/mL (≈ 0.637 µM)	0.004 µg/mL (≈ 0.00542 µM)	< 0.004 µg/mL	< 0.004 µg/mL	

Source: patent publication EP0410366A2, “Anthracycline derivatives” (BEHRINGWERKE Aktiengesellschaft, priority 1989, dated 1991)
